According to ChEMBL document CHEMBL1201862, “PubChem BioAssay data set” (2004):
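Assay format: 96-well plates, 48-hour exposure. GI50 is the concentration that inhibits growth by half.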 The source made the active and inactive calls. Cut-off read from the data, not from the text of the source: active = GI50 up to about 1.1 µM and inactive = higher.

Key:
Assay in all cases: DTP human tumour cell line panel, 48 h
HCT-116 = tested on: HCT-116
MOLT-4 = tested on: MOLT-4
M14 = tested on: M14
Malme-3M = tested on: Malme-3M
HCC 2998 = tested on: HCC 2998
ACHN = tested on: ACHN
KM12 = tested on: KM12
HL-60 = tested on: HL-60
NCI-H522 = tested on: NCI-H522
SN12C = tested on: SN12C
LOX IMVI = tested on: LOX IMVI
HCT-15 = tested on: HCT-15
U-251 = tested on: U-251
CAKI-1 = tested on: CAKI-1
OVCAR-3 = tested on: OVCAR-3
A498 = tested on: A498
HOP-92 = tested on: HOP-92
OVCAR-4 = tested on: OVCAR-4
A549 = tested on: A549
RPMI-8226 = tested on: RPMI-8226

| SMILES | GI50 (HCT-116) | GI50 (MOLT-4) | GI50 (M14) | GI50 (Malme-3M) | GI50 (HCC 2998) | GI50 (ACHN) | GI50 (KM12) | GI50 (HL-60) | GI50 (NCI-H522) | GI50 (SN12C) | GI50 (LOX IMVI) | GI50 (HCT-15) [µM] | GI50 (U-251) | GI50 (CAKI-1) | GI50 (OVCAR-3) | GI50 (A498) | GI50 (HOP-92) | GI50 (OVCAR-4) | GI50 (A549) | GI50 (RPMI-8226) |
| --- | --- | --- | --- | --- | --- | --- | --- | --- | --- | --- | --- | --- | --- | --- | --- | --- | --- | --- | --- | --- |
| C=CCC1(Sc2ccccn2)Sc2ccc3ccccc3c2-c2c(ccc3ccccc23)S1 | > 100 µM (inactive) | > 100 µM (inactive) | > 100 µM (inactive) | > 100 µM (inactive) | > 100 µM (inactive) | > 100 µM (inactive) | > 100 µM (inactive) | > 100 µM (inactive) | > 100 µM (inactive) | > 100 µM (inactive) | > 100 µM (inactive) | > 100 | > 100 µM (inactive) | > 100 µM (inactive) | > 100 µM (inactive) | > 100 µM (inactive) | > 100 µM (inactive) | > 100 µM (inactive) | > 100 µM (inactive) |  |
| c1ccc2c(c1)oc1ccc3nsnc3c12 | > 100 µM (inactive) | > 100 µM (inactive) | > 100 µM (inactive) | > 100 µM (inactive) | > 100 µM (inactive) | > 100 µM (inactive) | 56 µM (inactive) | > 100 µM (inactive) | > 100 µM (inactive) |  | > 10 µM (inactive) | > 100 |  | > 100 µM (inactive) | > 100 µM (inactive) | 63.4 µM (inactive) | 45.7 µM (inactive) | > 100 µM (inactive) | > 100 µM (inactive) |  |
| C/C(CCn1[nH]c(=O)ccc1=O)=N\OCCCc1ccccc1 | > 100 µM (inactive) | > 100 µM (inactive) | > 100 µM (inactive) | > 100 µM (inactive) | > 100 µM (inactive) | > 100 µM (inactive) | > 100 µM (inactive) | > 100 µM (inactive) |  | > 100 µM (inactive) | > 100 µM (inactive) | > 100 |  | > 100 µM (inactive) | > 100 µM (inactive) | > 100 µM (inactive) | 88.5 µM (inactive) | > 100 µM (inactive) | > 100 µM (inactive) | > 100 µM (inactive) |
| O=S(=O)(CCC[C@H]1[C@@H](CCOCc2ccccc2)C2CCCN1O2)c1ccccc1 (stereo not given in full) | > 100 µM (inactive) | 65.3 µM (inactive) | > 100 µM (inactive) | > 100 µM (inactive) | > 100 µM (inactive) | > 100 µM (inactive) | > 100 µM (inactive) |  | > 100 µM (inactive) | > 100 µM (inactive) |  | > 100 | > 100 µM (inactive) | > 100 µM (inactive) | > 100 µM (inactive) | > 100 µM (inactive) | > 100 µM (inactive) | > 100 µM (inactive) | > 100 µM (inactive) |  |
| CS/C(=N\S(=O)(=O)c1ccc(Cl)cc1)NCCCCN/C(=N/S(=O)(=O)c1ccc(Cl)cc1)SC | > 100 µM (inactive) | > 10 µM (inactive) | > 100 µM (inactive) | > 100 µM (inactive) | > 100 µM (inactive) | > 100 µM (inactive) |  | > 100 µM (inactive) |  | > 100 µM (inactive) | > 100 µM (inactive) | > 100 | 69.5 µM (inactive) | > 100 µM (inactive) | > 100 µM (inactive) | 32.6 µM (inactive) | 60.1 µM (inactive) | > 100 µM (inactive) |  | > 100 µM (inactive) |
| CS/C(=N\C#N)NC1CC(n2cc(C)c(=O)[nH]c2=O)OC1CO (stereo not given) | > 100 µM (inactive) | > 100 µM (inactive) | > 100 µM (inactive) | > 100 µM (inactive) | > 100 µM (inactive) | > 100 µM (inactive) | > 100 µM (inactive) | > 100 µM (inactive) | > 100 µM (inactive) | > 100 µM (inactive) | > 100 µM (inactive) | > 100 | > 100 µM (inactive) | > 100 µM (inactive) | > 100 µM (inactive) | > 100 µM (inactive) | > 100 µM (inactive) | > 100 µM (inactive) | > 100 µM (inactive) |  |
| COc1ccc(/N=N/c2c(C)c(C#N)c(=S)n(C3OC(COC(C)=O)C(OC(C)=O)C(OC(C)=O)C3OC(C)=O)c2-c2ccccc2)cc1 (stereo not given) | 4.32 µM (inactive) | 3.08 µM (inactive) | 1.94 µM (inactive) | 7.23 µM (inactive) | 23.4 µM (inactive) | 46.9 µM (inactive) | 8.43 µM (inactive) | 3.13 µM (inactive) |  | 7.96 µM (inactive) | 5.42 µM (inactive) | 14.9 | 10.7 µM (inactive) | 9.48 µM (inactive) | 13.9 µM (inactive) | 1.5 µM (inactive) | 4.01 µM (inactive) | 3.15 µM (inactive) | 8.18 µM (inactive) | 5.65 µM (inactive) |
| CS/C(=N\c1ccc([N+](=O)[O-])cc1C#N)NC(=O)c1ccccc1 | > 100 µM (inactive) | 54.2 µM (inactive) | > 100 µM (inactive) | > 100 µM (inactive) | > 100 µM (inactive) | > 100 µM (inactive) | > 100 µM (inactive) | > 100 µM (inactive) |  | > 100 µM (inactive) | 95.3 µM (inactive) | > 100 | > 100 µM (inactive) | 94.2 µM (inactive) | > 100 µM (inactive) | > 100 µM (inactive) | 46 µM (inactive) | > 100 µM (inactive) | > 100 µM (inactive) | > 100 µM (inactive) |
